Measurements: publication PMC11862611 (RSC Medicinal Chemistry, 2025)

Tests used:
[1] = molecular target: T1, M1 (h) (antagonist radioligand) (Homo sapiens, UniProt P11229); assay: radioligand displacement assay, M1; assay type: binding
T1 construct: purchased Eurofins (contract assay); host or cells: cell membrane homogenates
T1 sequence (P11229 1-460): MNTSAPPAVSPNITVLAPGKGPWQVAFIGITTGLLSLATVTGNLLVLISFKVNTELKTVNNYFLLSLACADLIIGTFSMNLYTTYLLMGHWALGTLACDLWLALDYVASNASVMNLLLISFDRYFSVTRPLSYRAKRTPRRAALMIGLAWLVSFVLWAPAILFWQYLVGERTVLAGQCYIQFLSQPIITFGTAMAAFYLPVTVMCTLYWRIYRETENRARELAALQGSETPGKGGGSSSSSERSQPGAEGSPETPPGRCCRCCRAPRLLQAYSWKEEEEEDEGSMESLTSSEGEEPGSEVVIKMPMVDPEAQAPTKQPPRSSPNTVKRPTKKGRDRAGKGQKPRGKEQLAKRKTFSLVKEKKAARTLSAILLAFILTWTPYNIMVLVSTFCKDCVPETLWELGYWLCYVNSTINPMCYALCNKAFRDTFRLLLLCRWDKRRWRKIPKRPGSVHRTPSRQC
Description: (§1) 4.2.3.6. Radioligand Binding Assay (Supplemental Figure S3)
(§2) These assays were run by Eurofins under contract to LifeArc FR095-0011887. A representative protocol describing the human histamine H2 receptor (antagonist radioligand) assay is shown below.12 Cell membrane homogenates (24 µg protein) are incubated for 120 min at 22°C with 0.075 nM [125I]APT in the absence or presence of the test compound in a buffer containing 50 mM Na2HPO4/KH2PO4 (pH […]
(§3) 7.4) and 0.05% BSA. […] Following

[2] = molecular target: T2, M4 (h) (antagonist radioligand) (Homo sapiens, UniProt P08173); assay: radioligand displacement assay, M4; assay type: binding
T2 construct: purchased Eurofins (contract assay); host or cells: cell membrane homogenates
T2 sequence (P08173 1-479): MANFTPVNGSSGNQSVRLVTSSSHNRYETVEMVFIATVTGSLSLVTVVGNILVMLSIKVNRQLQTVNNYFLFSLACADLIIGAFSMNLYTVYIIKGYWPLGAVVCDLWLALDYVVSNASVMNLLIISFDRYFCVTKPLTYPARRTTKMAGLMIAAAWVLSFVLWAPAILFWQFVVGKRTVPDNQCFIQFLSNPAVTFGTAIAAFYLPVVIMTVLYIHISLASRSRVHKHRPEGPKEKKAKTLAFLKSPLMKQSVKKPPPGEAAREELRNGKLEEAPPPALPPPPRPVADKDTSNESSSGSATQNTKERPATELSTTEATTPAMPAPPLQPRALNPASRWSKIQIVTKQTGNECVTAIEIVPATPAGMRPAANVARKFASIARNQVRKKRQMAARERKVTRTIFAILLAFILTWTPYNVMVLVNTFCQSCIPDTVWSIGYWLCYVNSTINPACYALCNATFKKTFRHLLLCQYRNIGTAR
Description: as §1, §2, §3

[3] = molecular target: T3, M5 (h) (antagonist radioligand) (Homo sapiens, UniProt P08912); assay: radioligand displacement assay, M5; assay type: binding
T3 construct: purchased Eurofins (contract assay); host or cells: cell membrane homogenates
T3 sequence (P08912 1-532): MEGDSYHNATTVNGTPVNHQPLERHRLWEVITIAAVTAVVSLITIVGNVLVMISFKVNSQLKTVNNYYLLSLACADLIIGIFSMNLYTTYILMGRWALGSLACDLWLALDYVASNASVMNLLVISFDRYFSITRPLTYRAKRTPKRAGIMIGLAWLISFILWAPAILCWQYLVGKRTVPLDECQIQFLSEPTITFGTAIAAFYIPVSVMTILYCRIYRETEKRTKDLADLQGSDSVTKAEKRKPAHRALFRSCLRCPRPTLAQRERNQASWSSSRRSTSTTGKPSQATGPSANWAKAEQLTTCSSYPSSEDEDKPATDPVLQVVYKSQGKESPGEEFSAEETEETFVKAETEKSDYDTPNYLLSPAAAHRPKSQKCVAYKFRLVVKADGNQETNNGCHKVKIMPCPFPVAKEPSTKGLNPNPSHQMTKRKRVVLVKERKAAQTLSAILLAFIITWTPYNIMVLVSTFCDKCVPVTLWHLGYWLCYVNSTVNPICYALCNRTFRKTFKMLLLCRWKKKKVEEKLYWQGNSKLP
Description: as §1, §2, §3

[4] = tested on: panel of neurotransmitter receptors; assay: radioligand displacement assay, whole panel; assay type: binding, human
Description: as §1, §2, §3

## C[C@H]1CCCN1CCCO[C@H](c1ccccc1)c1ccc(Cl)cc1 [38l]
[1]
  effective binding, radioligand displacement, M1: > 40%
[2]
  effective binding, radioligand displacement, M4: > 40%
[3]
  affinity, radioligand displacement, M5: lower affinity
[4]
  binding profile across receptor panel: greater selectivity
